From PubChem BioAssay AID1963432 (Molecular Pharmacology Branch, DTP, NCI, 2024)
One block for each compound: values may come before it.

System: SYO-1 complex spheroid growth, percent test/control
Test: Anticancer human tumor SYO-1 cell line growth inhibition [Asc];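 further: compound exposure lasted 7 days after spheroids grew 3 days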;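 on viability, T/C: 100% = DMSO vehicle control viability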
Conditions: for IC50: curve of first compound; for viability, T/C: stronger effect = lower value
Description: Multicellular complex tumor spheroid response to apoptosis pathway targeting inhibitors Alrizomadlin, Pelcitoclax, and Dasminapant in combination with a variety of drugs and investigational agents in selected tumor cell lines
The MDM2 inhibitor alrizomadlin, the Bcl-2/Bcl-xL inhibitor pelcitoclax, and the IAPs inhibitor dasminapant were evaluated both individually and in combination with standard of care and investigational anticancer small molecules within a complex spheroid model of solid tumors. . Complex spheroids include a stromal component modeled by human endothelial cells (HUVEC) and fibroblasts modeled by human mesenchymal stem cells (MSCs). The concentration ranges selected for each drug and investigational agent were based upon clinically achievable concentrations if the clinical Cmax of the agent was known.
Compounds. The drugs and investigational agents: alrizomadlin (APG-115; NSC831270), pelcitoclax (APG-1252; NSC835773), dasminapant (APG-1387;NSC834197), TAK-243 (NSC785004), copanlisib (NSC809693), olaparib (NSC753686), talazoparib (NSC767125), cobimetinib (NSC 768068), eltanexor (KPT-8602, NSC 794443), abemaciclib (NSC 768073), sotorasib (NSC818433), adagrasib (NSC 831453), MRTX-1133 (NSC 836407), Iadademestat (ORY1001, NSC 806812), and RMC-4630 (NSC839698), were obtained from the NCI Developmental Therapeutics Program Chemical Repository. The FDA-approved anticancer drug set is available from the Developmental Therapeutics Program at https://dtp.cancer.gov/organization/dscb/obtaining/available plates.htm. […] The stock solutions were prepared in dimethyl sulfoxide (DMSO, Sigma-Aldrich, St. Louis, MO, cat. D2650) at 800-fold the tested concentration and stored at -70 degrees C prior to their use. All drugs and investigational agents were tested over a range starting from a high concentration at or near the clinical Cmax and decreasing in half-log increments. If the clinical Cmax for an agent had not been determined, the highest concentration tested was 10 microM.
The patient-derived cancer (PDC) cell lines include five colon adenocarcinomas: 186277-243-T-J2-PDC, 616215-338-R-J1-PDC, 439559-082-T-J2-PDC, 463943-066-T-J2-PDC, and 519858-162-T-J1-PDC; three pancreatic carcinomas: 323965-272-R-J2-PDC, 521955-158-R6-J3-PDC, and 521955-158-R2-J5-PDC; two uterine sarcomas: 327498-152-R-J2-PDC and 993429-296-R-J1-PDC; two rhabdomyosarcomas: 755483-174-R-J1-PDC and 772245-204-R-J1-PDC; two soft tissue sarcomas: 126254-015-R-J1-PDC and 494315-158-R-J1-PDC; two malignant fibrous histiocytomas: 317291-083-R-J1-PDC and 596521-263-R-J1-PDC; two breast carcinomas: 171881-019-R-J1-PDC and 885512-296-R-J2-PDC; and one ovarian carcinoma: 6556581-035-R-J-PDC were obtained from the NCI PDMR, (https://pdmr.cancer.gov). The established cell lines HSSY-2 synovial sarcoma (RRID:CVCL 8719), SYO-1 synovial sarcoma (RRID:CVCL_7146), MPNST malignant peripheral neural sheath tumor were obtained from the Sloan Kettering Institute. The following established cell lines were purchased from the American Type Culture Collection (ATCC, Manassas, VA), Sor the received from the NCI repository:, PANC-1 pancreatic carcinoma (CRL-1469, RRID:CVCL_0480), OVCAR-5 ovarian carcinoma (RRID:CVCL_1628), OVCAR-8 ovarian carcinoma (RRID:CVCL_1629), , MCF-7 breast carcinoma (CRL-12584, RRID:CVCL_0031), MDA-MB-231 breast carcinoma (CRL-12532, RRID:CVCL_0062), NCI-H1876 small cell lung carcinoma (CRL-5902, RRID:CVCL_1503), NCI-H510A small cell lung carcinoma (HTB-184, RRID:CVCL_1565), NCI-H1417 (CRL-5869, RRID:CVCL_1469), and NCI-H196 small cell lung carcinoma (CRL-5823, RRID:CVCL_1509). Dr. Peter Houghton (Greehey Children's Cancer Research Institute, University of Texas Health Science Center, San Antonio, TX) provided Rh-18 rhabdomyosarcoma (RRID:CVCL_1659). Pooled donor human umbilical vein endothelial cells (HUVEC, Lonza, cat. CC-2519) and human mesenchymal stem cells (hMSC, Lonza, cat. PT-2501) were purchased from Lonza (Walkersville, MD).
Cell Culture. […]

[1] = second compound 0.00949 µM, first compound 0.00316 µM
[2] = second compound 0.00949 µM, first compound 0.01 µM
[3] = second compound 0.00949 µM, first compound 0.0316 µM
[4] = second compound 0.00949 µM, first compound 0.1 µM
[5] = second compound 0.00949 µM, first compound 0.316 µM
[6] = second compound 0.00949 µM, first compound 1 µM
[7] = second compound 0.03 µM, first compound 0.00316 µM
[8] = second compound 0.03 µM, first compound 0.01 µM
[9] = second compound 0.03 µM, first compound 0.0316 µM
[10] = second compound 0.03 µM, first compound 0.1 µM
[11] = second compound 0.03 µM, first compound 0.316 µM
[12] = second compound 0.03 µM, first compound 1 µM
[13] = second compound 0.0949 µM, first compound 0.00316 µM
[14] = second compound 0.0949 µM, first compound 0.01 µM
[15] = second compound 0.0949 µM, first compound 0.0316 µM
[16] = second compound 0.0949 µM, first compound 0.1 µM
[17] = second compound 0.0949 µM, first compound 0.316 µM
[18] = second compound 0.0949 µM, first compound 1 µM
[19] = second compound 0.3 µM, first compound 0.00316 µM
[20] = second compound 0.3 µM, first compound 0.01 µM
[21] = second compound 0.3 µM, first compound 0.0316 µM
[22] = second compound 0.3 µM, first compound 0.1 µM
[23] = second compound 0.3 µM, first compound 0.316 µM
[24] = second compound 0.3 µM, first compound 1 µM
[25] = second compound 0.949 µM, first compound 0.00316 µM
[26] = second compound 0.949 µM, first compound 0.01 µM
[27] = second compound 0.949 µM, first compound 0.0316 µM
[28] = second compound 0.949 µM, first compound 0.1 µM
[29] = second compound 0.949 µM, first compound 0.316 µM
[30] = second compound 0.949 µM, first compound 1 µM
[31] = second compound 3 µM, first compound 0.00316 µM
[32] = second compound 3 µM, first compound 0.01 µM
[33] = second compound 3 µM, first compound 0.0316 µM
[34] = second compound 3 µM, first compound 0.1 µM
[35] = second compound 3 µM, first compound 0.316 µM
[36] = second compound 3 µM, first compound 1 µM

IC50 (second compound 0.00949 µM): > 1000 nM
IC50 (second compound 0.03 µM): > 1000 nM
IC50 (second compound 0.0949 µM): 446 nM
IC50 (second compound 0.3 µM): < 3.16 nM
IC50 (second compound 0.949 µM): < 3.16 nM
IC50 (second compound 3 µM): < 3.16 nM
Compound: CCN1CCN(Cc2ccc(Nc3ncc(F)c(-c4cc(F)c5nc(C)n(C(C)C)c5c4)n3)nc2)CC1 + CCN1C(C(=O)NC23CCC(C(=O)O)(CC2)CC3)C(c2cccc(Cl)c2F)C2(C(=O)Nc3cc(Cl)ccc32)C12CCCCC2
viability, T/C [1]: 105%
viability, T/C [2]: 105%
viability, T/C [3]: 116%
viability, T/C [4]: 119%
viability, T/C [5]: 121%
viability, T/C [6]: 102%
viability, T/C [7]: 98.8%
viability, T/C [8]: 101%
viability, T/C [9]: 98.9%
viability, T/C [10]: 117%
viability, T/C [11]: 106%
viability, T/C [12]: 73.1%
viability, T/C [13]: 87%
viability, T/C [14]: 85%
viability, T/C [15]: 87.5%
viability, T/C [16]: 88.6%
viability, T/C [17]: 63%
viability, T/C [18]: 19.5%
viability, T/C [19]: 25.1%
viability, T/C [20]: 20.8%
viability, T/C [21]: 20.6%
viability, T/C [22]: 16.5%
viability, T/C [23]: 9.85%
viability, T/C [24]: 2.81%
viability, T/C [25]: 2.61%
viability, T/C [26]: 2.87%
viability, T/C [27]: 2.98%
viability, T/C [28]: 4.27%
viability, T/C [29]: 2.21%
viability, T/C [30]: 1.42%
viability, T/C [31]: 2.07%
viability, T/C [32]: 1.29%
viability, T/C [33]: 2.77%
viability, T/C [34]: 1.88%
viability, T/C [35]: 3.26%
viability, T/C [36]: 2.37%

IC50 (second compound 0.00949 µM): > 1000 nM
IC50 (second compound 0.03 µM): > 1000 nM
IC50 (second compound 0.0949 µM): 823 nM
IC50 (second compound 0.3 µM): < 3.16 nM
IC50 (second compound 0.949 µM): < 3.16 nM
IC50 (second compound 3 µM): < 3.16 nM
Compound: O=C(c1ccc(F)c(F)c1Nc1ccc(I)cc1F)N1CC(O)([C@@H]2CCCCN2)C1 + CCN1C(C(=O)NC23CCC(C(=O)O)(CC2)CC3)C(c2cccc(Cl)c2F)C2(C(=O)Nc3cc(Cl)ccc32)C12CCCCC2
viability, T/C [1]: 115%
viability, T/C [2]: 103%
viability, T/C [3]: 99.9%
viability, T/C [4]: 111%
viability, T/C [5]: 107%
viability, T/C [6]: 119%
viability, T/C [7]: 96.5%
viability, T/C [8]: 99.5%
viability, T/C [9]: 102%
viability, T/C [10]: 116%
viability, T/C [11]: 116%
viability, T/C [12]: 103%
viability, T/C [13]: 83.5%
viability, T/C [14]: 93.1%
viability, T/C [15]: 94.5%
viability, T/C [16]: 95%
viability, T/C [17]: 93.5%
viability, T/C [18]: 41.4%
viability, T/C [19]: 30.4%
viability, T/C [20]: 23.9%
viability, T/C [21]: 24.8%
viability, T/C [22]: 21.6%
viability, T/C [23]: 10.2%
viability, T/C [24]: 0.94%
viability, T/C [25]: 5.46%
viability, T/C [26]: 5.3%
viability, T/C [27]: 3.35%
viability, T/C [28]: 1.43%
viability, T/C [29]: 0.7%
viability, T/C [30]: 0.15%
viability, T/C [31]: 1.44%
viability, T/C [32]: 2.44%
viability, T/C [33]: 1.3%
viability, T/C [34]: 0.81%
viability, T/C [35]: 0.22%
viability, T/C [36]: 0.42%
